Patent US20260034123A1 (Cedilla Therapeutics, Inc., priority 2022, published 2026)

Columns and labels:
[1] = target: CDK2/Cyclin E1 (Homo sapiens, UniProt P24941); experiment: ADP-Glo Luminescent Kinase Assay (CDK2/E1-37C); format: biochemical; conditions: 0.18 nM CDK2/Cyclin E1, 100 μM ATP, Histone H1, 37° C.; read-out: ADPGLO (CDK2/E1-37C): IC50
Method: Inhibition of CDK2/Cyclin E1 activity by the presence of small molecules was evaluated using ADP-Glo Luminescent Kinase Assay (Promega). Activated CDK2/Cyclin E1 was incubated with its substrate Histone H1 (SignalChem H10-54N) in the kinase reaction buffer (100 μM ATP, 50 mM HEPES pH 7.5, 10 mM MgCl2, 1 mM EDTA, 2 mM DTT, 0.01% Brij35, 0.5 mg/mL BSA). Luminescence was recorded with an Envision plate reader (PerkinElmer).
Dose titrations of inhibitors in 100% DMSO were combined with 0.36 nM CDK2/Cyclin E1 in reaction buffer. The mixtures were incubated for 60 minutes at 37° C. before the addition of ATP and Histone H1 substrate to initiate the kinase reaction. The final conditions were 0.18 nM CDK2/Cyclin E1, 100 μM ATP, and […] Histone H1. The reactions were incubated at 37° C. for 90 minutes before being stopped with the addition of ADP-Glo reagent. This mixture was incubated at room temperature for 60 minutes before Kinase Detection Solution is added to generate luminescence. The stopped reactions were analyzed on an Envision plate reader. The conversion ratios were normalized to yield % activity, plotted against compound concentration, and fit to a four-parameter equation to determine the IC50 for each compound.

[2] = system: Kuramochi cells RB-WT; experiment: IncuCyte Kuramochi cell proliferation assay, RB-WT; format: cell-based; conditions: 72 hours, cell count
Method: IncuCyte® assay was used to measure the effect of disclosed compounds on cell proliferation. Fluorescent microscopy images of cells were taken immediately after compound treatment and 72 hours later. Image analysis software was used to obtain cell counts as a function of compound concentration. Kuramochi cells labeled with mApple-H2B were seeded on 384-well assay-ready plates. Plates were placed in an IncuCyte® (Sartorius) and scanned at 0 and 72 hours. IncuCyte® software was used to count the number of fluorescent nuclei in each well. The fold change in cell count from 0 to 72 hours in wells treated with increasing compounds concentrations (10 pts, 1/2 log dilution, 20 µM top concentration) was normalized to DMSO control wells. The normalized cell counts were fit with dose response curves and a GI50 was calculated.

Row | SMILES | IC50 [1] | IC50 [2]
1 | CC(C)(C(=O)N1CC2(CN(C(=O)c3cnn(Cc4ccc(F)cc4)c3)C[C@H]2COCc2ccccc2C(=O)O)C1)C(F)(F)F [I′-11] | > 10 µM | –
2 | CC(C)(C(=O)N1CC2(CN(C(=O)c3cnn(Cc4ccc(F)cc4)c3)C[C@H]2COCc2cccc(C3=CCCC3)c2C(=O)O)C1)C(F)(F)F [I′-12] | ≤ 0.5 µM | –
3 | CC(C)(C(=O)N1CC2(CN(C(=O)c3cnn(Cc4ccc(F)cc4)c3)C[C@H]2COCc2c(F)ccc(C3CCC(F)(F)CC3)c2C(=O)O)C1)C(F)(F)F [I′-13] | ≤ 0.5 µM | –
4 | CC(C)(C(=O)N1CC2(C1)CN(c1cc(F)c(F)c3ncsc13)C[C@H]2COCc1c(F)ccc(C2CCC(F)(F)CC2)c1C(=O)O)C(F)(F)F [I′-14, (S)-2-(((6-(4,5-difluorobenzo[d]thiazol-7-yl)-2-(3,3,3-trifluoro-2,2-dimethylpropanoyl)-2,6-diazaspiro[3.4]octan-8-yl)methoxy)methyl)-6-(4,4-difluorocyclohexyl)-3-fluorobenzoic acid] | ≤ 0.5 µM | –
5 | O=C(O)c1c(COC[C@@H]2CN(C(=O)c3cnn(Cc4ccc(F)cc4)c3)CC23CN(C(=O)C2CCOCC2)C3)cccc1C1CCC(F)(F)CC1 [I′-15] | 0.5 to 5 µM | –
6 | CC(C)C(=O)N1CC2(CN(C(=O)c3cnn(Cc4ccc(F)cc4)c3)C[C@H]2COCc2cccc(C3CCC(F)(F)CC3)c2C(=O)O)C1 [I′-16, (S)-2-(4,4-difluorocyclohexyl)-6-(((6-(1-(4-fluorobenzyl)-1H-pyrazole-4-carbonyl)-2-isobutyryl-2,6-diazaspiro[3.4]octan-8-yl)methoxy)methyl)benzoic acid] | ≤ 0.5 µM | –
7 | O=C(O)c1c(COC[C@@H]2CN(C(=O)c3cnn(Cc4ccc(F)cc4)c3)CC23CN(C(=O)C24CC(C2)C4)C3)cccc1C1CCC(F)(F)CC1 [I′-17, (S)-2-(((2-(bicyclo[11.1.1]pentane-1-carbonyl)-6-(1-(4-fluorobenzyl)-1H-pyrazole-4-carbonyl)-2,6-diazaspiro[3.4]octan-8-yl)methoxy)methyl)-6-(4,4-difluorocyclohexyl)benzoic acid] | ≤ 0.5 µM | –
8 | CN(C)CCNC(=O)c1c(COC[C@@H]2CN(C(=O)c3cnn(Cc4ccc(F)cc4)c3)CC23CN(C(=O)C(C)(C)C(F)(F)F)C3)cccc1C1CCC(F)(F)CC1 [I′-18] | ≤ 0.5 µM | –

Further lines, with some results ahead:

Row | IC50 [1] | SMILES | IC50 [2]
9 | 5 to 10 µM | O=C(NS(=O)(=O)c1cccc(C2CCCCC2)c1)C1CN(C(=O)c2cnn(Cc3ccccc3)c2)CC12CN(C(=O)[C@H]1CC1(F)F)C2 (stereo partly drawn) [Compound I-1, 6-(1-benzyl-1H-pyrazole-4-carbonyl)-N-((3-cyclohexylphenyl)sulfonyl)-2-((R)-2,2-difluorocyclopropane-1-carbonyl)-2,6-diazaspiro[3.4]octane-8-carboxamide] | > 10 µM
10 | 5 to 10 µM | N#Cc1ccc(Cn2cc(C(=O)N3CC(CS(=O)(=O)Cc4cccc(-c5ccc(C(F)(F)F)cc5)n4)C4(C3)CN(C(=O)C3(C(F)(F)F)CC3)C4)cn2)cc1 (stereo not shown) [Compound I-2] | > 10 µM
11 | > 10 µM | O=C(c1cnc(O)cn1)N1CC(CS(=O)(=O)Cc2cccc(-c3ccc(C(F)(F)F)cc3)n2)C2(C1)CN(C(=O)[C@H]1CC1(F)F)C2 (stereo partly drawn) [Compound I-3, (2-((R)-2,2-difluorocyclopropane-1-carbonyl)-8-((((6-(4-(trifluoromethyl)phenyl)pyridin-2-yl)methyl)sulfonyl)methyl)-2,6-diazaspiro[3.4]octan-6-yl)(5-hydroxypyrazin-2-yl)methanone] | > 10 µM
12 | ≤ 0.5 µM | O=C(O)c1c(COC[C@@H]2CN(C(=O)c3cnn(Cc4ccc(F)cc4)c3)CC23CN(C(=O)C2(C(F)(F)F)CC2)C3)cccc1C1CCC(F)(F)CC1 [Compound I-51, (S)-2-(4,4-difluorocyclohexyl)-6-(((6-(1-(4-fluorobenzyl)-1H-pyrazole-4-carbonyl)-2-(1-(trifluoromethyl)cyclopropanecarbonyl)-2,6-diazaspiro[3.4]octan-8-yl)methoxy)methyl) benzoic acid] | 5 to 10 µM
13 | 5 to 10 µM | O=C(O)c1c(COCC2CN(C(=O)c3cnn(Cc4ccc(C(F)(F)F)cc4)c3)CC23CN(C(=O)C2(C(F)(F)F)CC2)C3)cccc1C1CCC(C(F)(F)F)CC1 (stereo not shown) [Compound I-52, 2-(((6-(1-(4-(trifluoromethyl)benzyl)-1H-pyrazole-4-carbonyl)-2-(1-(trifluoromethyl)cyclopropane-1-carbonyl)-2,6-diazaspiro[3.4]octan-8-yl)methoxy)methyl)-6-(4-(trifluoromethyl)cyclohexyl)benzoic acid] | > 10 µM
14 | > 10 µM | O=C(NS(=O)(=O)c1cccc(C2CCOCC2)c1)C1CN(c2cc(F)cc3ncsc23)CC12CN(C(=O)C1(C(F)(F)F)CC1)C2 (stereo not shown) [Compound I-53, 6-(5-fluorobenzo[d]thiazol-7-yl)-N-((3-(tetrahydro-2H-pyran-4-yl)phenyl)sulfonyl)-2-(1-(trifluoromethyl)cyclopropane-1-carbonyl)-2,6-diazaspiro[3.4]octane-8-carboxamide] | > 10 µM
15 | ≤ 0.5 µM | CC1(C)C[C@@H]1C(=O)N1CC2(CN(C(=O)c3cnn(Cc4ccccc4C(=O)O)c3)C[C@H]2COCc2cccc(C3CCC(C(F)(F)F)CC3)n2)C1 (stereo partly drawn) [Compound I-54, 2-((4-((S)-2-((S)-2,2-dimethylcyclopropane-1-carbonyl)-8-(((6-(4-(trifluoromethyl)cyclohexyl)pyridin-2-yl)methoxy)methyl)-2,6-diazaspiro[3.4]octane-6-carbonyl)-1H-pyrazol-1-yl)methyl)benzoic acid] | > 10 µM
16 | > 10 µM | COC(=O)c1c(O)cc(COCC2CN(C(=O)c3cnn(Cc4ccc(C(F)(F)F)cc4)c3)CC23CN(C(=O)C2(C(F)(F)F)CC2)C3)cc1-c1ccc(C(F)(F)F)cc1 (stereo not shown) [Compound I-55, methyl 3-hydroxy-4′-(trifluoromethyl)-5-(((6-(1-(4-(trifluoromethyl)benzyl)-1H-pyrazole-4-carbonyl)-2-(1-(trifluoromethyl)cyclopropane-1-carbonyl)-2,6-diazaspiro[3.4]octan-8-yl)methoxy)methyl)-[1,1′-biphenyl]-2-carboxylate] | 5 to 10 µM
17 | 5 to 10 µM | CC1(C)C[C@@H]1C(=O)N1CC2(CN(C(=O)c3cncs3)CC2COCC(=O)N2CCC(c3ccc(C(=O)O)cc3OC3CCCCC3)CC2)C1 (stereo partly drawn) [Compound I-56, 3-(cyclohexyloxy)-4-(1-(2-((2-((S)-2,2-dimethylcyclopropane-1-carbonyl)-6-(thiazole-5-carbonyl)-2,6-diazaspiro[3.4]octan-8-yl)methoxy)acetyl)piperidin-4-yl)benzoic acid] | > 10 µM
18 | > 10 µM | CC(C)(C)OC(=O)c1c(COCC2CN(c3cc(F)cc4ncsc34)CC23CN(C(=O)C2(C(F)(F)F)CC2)C3)cccc1C1CCC(C(F)(F)F)CC1 (stereo not shown) [Compound I-57, tert-butyl 2-(((6-(5-fluorobenzo[d]thiazol-7-yl)-2-(1-(trifluoromethyl)cyclopropane-1-carbonyl)-2,6-diazaspiro[3.4]octan-8-yl)methoxy)methyl)-6-(4-(trifluoromethyl)cyclohexyl)benzoate] | > 10 µM
19 | > 10 µM | O=C(NS(=O)(=O)c1cccc(C2CCOCC2)c1)[C@@H]1CN(C(=O)c2cnn(Cc3ccc(C(F)(F)F)cc3)c2)CC12CN(C(=O)C1(C(F)(F)F)CC1)C2 [Compound I-58, (S)—N-((3-(tetrahydro-2H-pyran-4-yl)phenyl)sulfonyl)-6-(1-(4-(trifluoromethyl)benzyl)-1H-pyrazole-4-carbonyl)-2-(1-(trifluoromethyl)cyclopropane-1-carbonyl)-2,6-diazaspiro[3.4]octane-8-carboxamide] | > 10 µM
20 | > 10 µM | N#Cc1ccc(Cn2cc(C(=O)N3CC(C(=O)NS(=O)(=O)c4cccc(C5(C(F)(F)F)CC5)c4)C4(C3)CN(C(=O)C3(C(F)(F)F)CC3)C4)cn2)cc1 (stereo not shown) [Compound I-59, 6-(1-(4-cyanobenzyl)-1H-pyrazole-4-carbonyl)-2-(1-(trifluoromethyl)cyclopropane-1-carbonyl)-N-((3-(1-(trifluoromethyl)cyclopropyl)phenyl)sulfonyl)-2,6-diazaspiro[3.4]octane-8-carboxamide] | > 10 µM
21 | > 10 µM | O=C(O)c1ccc(C2CCN(C(=O)COCC3CN(C(=O)c4cnn(Cc5ccccc5)c4)CC34CN(C(=O)C3(C(F)(F)F)CC3)C4)CC2)c(OC2CCCCC2)c1 (stereo not shown) [Compound I-60, 4-(1-(2-((6-(1-benzyl-1H-pyrazole-4-carbonyl)-2-(1-(trifluoromethyl)cyclopropane-1-carbonyl)-2,6-diazaspiro[3.4]octan-8-yl)methoxy)acetyl)piperidin-4-yl)-3-(cyclohexyloxy)benzoic acid] | > 10 µM
